Test results as given in patent publication US6733995B2, “Cathepsin L, its prepro form and the corresponding propeptide from ciliates” (Nutrinova Nutrition Specialties & Food Ingredients GmbH, priority 1996, dated 2004).
Non-standard residues stand in square brackets, D forms with d. Residues, ends and D or L forms follow the SMILES beside them. *: point of attachment. Sta = CC(C)C[C@H](N)[C@@H](O)CC(=O)O; Isovaleryl = CC(C)CC(=O)*

Target: T1, Paramecium cathepsin L isozymes (30 kDa and 33 kDa) (Paramecium tetraurelia, UniProt Q94714)
T1 construct: identical enzyme proteins were involved, with the proteins possibly only being processed differently; from tissue; host or cells: Paramecium tetraurelia mass cultures (cell homogenate)
T1 sequence (Q94714 110-314): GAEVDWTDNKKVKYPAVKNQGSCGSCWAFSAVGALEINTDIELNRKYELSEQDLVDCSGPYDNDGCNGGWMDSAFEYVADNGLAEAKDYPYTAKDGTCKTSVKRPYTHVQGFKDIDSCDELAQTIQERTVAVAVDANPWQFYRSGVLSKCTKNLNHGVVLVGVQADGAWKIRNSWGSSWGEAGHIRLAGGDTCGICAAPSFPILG
Test: Effect of class-specific protease inhibitors on the purified Paramecium proteases (cathepsin L assay)
Assay type: biochemical
Conditions: 32P phosphorylase a as substrate
Description: ^32P-Phosphorylase a (approx. 5×10^4 cpm/min) was used as substrate. A test mixture (30 μl) contained 10 μM substrate, 12 mM Tris/HCl (pH 7.0), 50 μM EDTA, 10 mM 2-mercaptoethanol, 5 mM caffeine and 6.7 μg of BSA. The reaction was stopped, after incubating at 30° C. for 10 minutes, by adding 200 μl of trichloroacetic acid (20% w/v). The radioactivity of the non-precipitable peptides was determined in the supernatant following centrifugation. One unit of enzyme activity corresponds to the quantity which liberates 1 μmol of soluble ^32P-phosphopeptide/min.
All the purification steps were carried out at 4° C. The cells were homogenized in 50 mM Tris/HCl (pH 7.0), 5 mM EDTA using a French press. Cell debris were removed by centrifugation (23,000×g, 60 min; 100,000×g, 60 min). The supernatant was loaded onto a DEAE Sepharose® column which was equilibrated with 20 mM Tris/HCl (pH 7.0). About half the protease activity eluted with the flowthrough. The column was washed with 250 mM NaCl. The remaining protease activity was eluted with 450 mM KCl. After that, the active fractions were purified through a Sephacryl® S-100 HR column. The protease eluted at approximately 27 kDa. The pooled active fractions were subsequently loaded onto a mono Q column. Elution was carried out using a linear gradient (60 ml of from 100 to 350 mM NaCl). Two active proteases (30 kDa and 33 kDa) were separated in this step. Purity was examined by means of SDS-PAGE. When using ^32P phosphorylase a as substrate, the pH optimum of the two isozymes was 6.5; the temperature optimum was 56° C.

Compound | effect of inhibitor on protease activity
O=C(O)CN(CCN(CC(=O)O)CC(=O)O)CC(=O)O [EDTA] | no inhibitory effect
Cc1ccc(S(=O)(=O)NC(CCCCN)C(=O)CCl)cc1 (stereo not drawn) [TLCK] | reduced the activity drastically
CC(=O)N[C@@H](CC(C)C)C(=O)N[C@@H](CC(C)C)C(=O)N[C@H](C=O)CCCNC(=N)N [leupeptin] | reduced the activity drastically
CC(C)CC(=O)N[C@H](C(=O)N[C@H](C(=O)N[C@@H](CC(C)C)[C@@H](O)CC(=O)N[C@@H](C)C(=O)N[C@@H](CC(C)C)[C@@H](O)CC(=O)O)C(C)C)C(C)C [pepstatin] (Isovaleryl-VV[Sta]A[Sta]-OH) | no inhibitory effect
aprotinin | no inhibitory effect
cystatin | reduced the activity drastically
